These results are taken from patent US8716473B2, “Substituted benzotriazines and quinoxalines as inhibitors of P7OS6 kinase” (Sentinel Oncology Limited, priority 2009, dated 2014).

Counter-ions that a name gives are not always drawn.

Assay [1] has as its system phosphorylation of S6 Ser235/236 in MCF-7 cells. Description: Inhibition of P70S6K activity in whole cells: phospho-S6 ELISA in MCF-7 cells. To be noted: Homo sapiens, MCF7, 2 h incubation, 1% FBS. It is filed as cell-based. The protocol: The following assay provides IC50 values for inhibition of P70S6K activity in a whole cell assay by determining effects on the phosphorylation of S6^Ser235/236 in MCF-7 cells by ELISA.
The following protocol was used: • 1) MCF-7 cells were seeded in 96-well plates at a density of 7×10^3 cells per well and allowed to adhere for 6 h in media containing 10% FBS. • 2) The full serum media was replaced and cells incubated overnight in media containing 1% FBS, prior to addition of test compounds. • 3) Test compounds were prepared from 10 mM or 5 mM (BEZ-235) DMSO stocks to give final concentration ranges as indicated on graphs. DMSO was constant at a final concentration of 1%. • 4) Test compounds were incubated with cells in duplicate for 2 h at 37° C./5% CO2 in a humidified atmosphere. • 5) The media was removed and cells were lysed by freeze-thawing in cell lysis buffer. • 6) Detection of phosphorylated S6Ser235/236 was then carried out using a PathScan ELISA kit (Cell Signaling Technology #7205). • 7) Lysates were diluted 1:1 with sample diluent before being applied to wells coated with an antibody against phosphorylated-S6 protein. • 8) The ELISA was then performed as stated in the manufacturers' instructions. • 9) The raw data were normalised to control values and analysed using a 4-parameter logistic equation in GraphPad Prism.
Background: ELISA stands for enzyme-linked immunosorbent assay.

The target in another assay is p70S6K (h) (Homo sapiens, UniProt P23443). Description: Determination of p70S6 inhibitory activity (radiometric 33P-ATP filter assay). In kind it is biochemical. To be noted: 40 min at room temperature, read-out: IC50 against P70S6 kinase. How it is done:
The ability of compounds of the invention to inhibit P70S6 kinase was determined using the protocol below.
• 20 mM MOPS, 1 mM EDTA, 0.01% Brij-35, 5% Glycerol, 0.1% b-mercaptoethanol, 1 mg/mL BSA Method: • p70S6K (h)
In a final reaction volume of 25 μL, p70S6K (h) (5-10 mU) is incubated with 8 mM MOPS pH 7.0, 0.2 mM EDTA, 100 μM KKRNRTLTV, 10 mM Mg acetate and [γ-33P-ATP] (specific activity approx. 500 cpm/pmol, concentration as required). The reaction is initiated by the addition of the MgATP mix. After incubation for 40 minutes at room temperature, the reaction is stopped by the addition of 5 μL of a 3% phosphoric acid solution. 10 μL of the reaction mixture is then spotted onto a P30 filtermat and washed three times for 5 minutes in 75 mM phosphoric acid and once in methanol prior to drying and scintillation counting.

Sequence of p70S6K (h) (P23443 whole entry): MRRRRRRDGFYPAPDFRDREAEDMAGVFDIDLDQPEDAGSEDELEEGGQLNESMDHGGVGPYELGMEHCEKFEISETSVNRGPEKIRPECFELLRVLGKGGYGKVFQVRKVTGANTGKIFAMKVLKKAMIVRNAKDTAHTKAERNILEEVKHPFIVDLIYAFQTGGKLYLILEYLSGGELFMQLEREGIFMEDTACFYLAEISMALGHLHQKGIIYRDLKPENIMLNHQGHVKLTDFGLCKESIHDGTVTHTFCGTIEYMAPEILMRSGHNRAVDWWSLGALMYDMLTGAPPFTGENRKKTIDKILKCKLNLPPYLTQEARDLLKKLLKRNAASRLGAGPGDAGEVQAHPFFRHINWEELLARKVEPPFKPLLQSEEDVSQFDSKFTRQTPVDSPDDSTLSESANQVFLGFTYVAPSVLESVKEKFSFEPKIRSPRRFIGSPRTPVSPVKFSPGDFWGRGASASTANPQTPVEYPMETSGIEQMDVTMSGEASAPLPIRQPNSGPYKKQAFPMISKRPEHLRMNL

As for `Cc1cccc([C@@H](C)Nc2cnc3cc(-c4cn[nH]c4)ccc3n2)c1` [Example 58, [6-(1H-Pyrazol-4-yl)-quinoxalin-2-yl]-((R)-1-m-tolyl-ethyl)-amine hydrochloride], the IC50 (as a rule, the concentration at which inhibition is half-maximal) in assay [1] is < 1000 nM. As to `CN(Cc1ccccc1)c1cnc2cc(-c3ccncc3)ccc2n1` [Example 22, Benzyl-methyl-(6-pyridin-4-yl-quinoxalin-2-yl)-amine], the IC50 at p70S6K (h) was < 1000 nM. Still for that read-out and setting: the value for `CN(Cc1ccccc1Cl)c1cnc2cc(-c3cn[nH]c3)ccc2n1` [Example 45, (2-Chloro-benzyl)-methyl-[6-(1H-pyrazol-4-yl)-quinoxalin-2-yl]-amine hydrochloride] was < 1000 nM. The same measure, in the same setting: the value for `Clc1ccccc1CNc1cnc2cc(-c3cn[nH]c3)ccc2n1` [Example 10, (2-Chloro-benzyl)-[6-(1H-pyrazol-4-yl)-quinoxalin-2-yl]-amine] was < 1000 nM. On the same count and under the same terms, next, `COc1cccc(CNc2nc3ccc(-c4cn[nH]c4)cc3[n+]([O-])n2)c1` [Example 36, (3-Methoxy-benzyl)-[1-oxy-7-(1H-pyrazol-4-yl)-benzo[1,2,4]triazin-3-yl]-amine]: < 100 nM; `c1ccc2cc(CNc3cnc4cc(-c5cn[nH]c5)ccc4n3)ccc2c1` [Example 39, Naphthalen-2-ylmethyl-[6-(1H-pyrazol-4-yl)-quinoxalin-2-yl]-amine hydrochloride]: < 1000 nM. With `C[C@H](Nc1cnc2cc(-c3cn[nH]c3)ccc2n1)c1cccc(F)c1` [Example 59, [(S)-1-(3-Fluoro-phenyl)-ethyl]-[6-(1H-pyrazol-4-yl)-quinoxalin-2-yl]-amine hydrochloride], the IC50 in assay [1] is < 20000 nM; at p70S6K (h) it was < 5000 nM. Regarding `FC(F)(F)Oc1cccc(CNc2cnc3cc(-c4cn[nH]c4)ccc3n2)c1` [Example 30, [6-(1H-Pyrazol-4-yl)-quinoxalin-2-yl]-(3-trifluoromethoxy-benzyl)-amine], on p70S6K (h), the IC50 is < 1000 nM. Still for that read-out and setting: the value for `C[C@H](Nc1cnc2cc(-c3cn[nH]c3)ccc2n1)c1ccccc1` [Example 24, ((S)-1-Phenyl-ethyl)-[6-(1H-pyrazol-4-yl)-quinoxalin-2-yl]-amine hydrochloride] was < 5000 nM; that for `CN1CCN(c2cccc(CN(C)c3cnc4cc(-c5cn[nH]c5)ccc4n3)c2)CC1` [Example 48, Methyl-[3-(4-methyl-piperazin-1-yl)-benzyl]-[6-(1H-pyrazol-4-yl)-quinoxalin-2-yl]-amine] was < 100 nM; that for `CN(Cc1ccccc1)c1nc2ccc(-c3cn[nH]c3)cc2[n+]([O-])n1` [Example 34, Benzyl-methyl-[1-oxy-7-(1H-pyrazol-4-yl)-benzo[1,2,4]triazin-3-yl]-amine] was < 100 nM. `CN(Cc1ccc(F)c(C(F)(F)F)c1)c1cnc2cc(-c3cn[nH]c3)ccc2n1` [Example 29, (4-Fluoro-3-trifluoromethyl-benzyl)-methyl-[6-(1H-pyrazol-4-yl)-quinoxalin-2-yl]-amine]: the IC50 on p70S6K (h) was < 1000 nM. On the same count and under the same terms, next, `c1ccc(CNc2nnc3cc(-c4cn[nH]c4)ccc3n2)cc1` [Example 64, Benzyl-[7-(1H-pyrazol-4-yl)-benzo[1,2,4]triazin-3-yl]-amine]: < 1000 nM.

As for `COc1cccc(CNc2nnc3cc(-c4cn[nH]c4)ccc3n2)c1` [Example 37, (3-Methoxy-benzyl)-[7-(1H-pyrazol-4-yl)-benzo[1,2,4]triazin-3-yl]-amine], the IC50 on p70S6K (h) was < 1000 nM.

As for `c1cncc(CNc2cnc3cc(-c4cn[nH]c4)ccc3n2)c1` [Example 15, [6-(1H-Pyrazol-4-yl)-quinoxalin-2-yl]-pyridin-3-ylmethyl-amine hydrochloride], the IC50 at p70S6K (h) was < 1000 nM. Same read-out and setting: next, `C[C@@H](c1ccccc1)N(C)c1cnc2cc(-c3cn[nH]c3)ccc2n1` [Example 57, Methyl-((S)-1-phenyl-ethyl)-[6-(1H-pyrazol-4-yl)-quinoxalin-2-yl]-amine]: < 1000 nM. The same measure, in the same setting: next, `COc1ccccc1CNc1cnc2cc(-c3cn[nH]c3)ccc2n1` [Example 19, (2-Methoxy-benzyl)-[6-(1H-pyrazol-4-yl)-quinoxalin-2-yl]-amine]: < 1000 nM.

Regarding `COc1cccc([C@@H](C)N(C)c2cnc3cc(-c4cn[nH]c4)ccc3n2)c1` [Example 53, [(R)-1-(3-Methoxy-phenyl)-ethyl]-methyl-[6-(1H-pyrazol-4-yl)-quinoxalin-2-yl]-amine hydrochloride], the IC50 in assay [1] was < 1000 nM; on p70S6K (h) it was < 100 nM. With `CN(Cc1ccccc1)c1cnc2cc(-c3ccncn3)ccc2n1` [Example 23, Benzyl-methyl-(6-pyrimidin-4-yl-quinoxalin-2-yl)-amine], on p70S6K (h), the IC50 was < 1000 nM.

For `Fc1ccc(CNc2cnc3cc(-c4cn[nH]c4)ccc3n2)cc1C(F)(F)F` [Example 20, (4-Fluoro-3-trifluoromethyl-benzyl)-[6-(1H-pyrazol-4-yl)-quinoxalin-2-yl]-amine], the IC50 on p70S6K (h) was < 1000 nM. Still for that read-out and setting: next, `CN(Cc1ccccc1)c1nnc2cc(-c3cn[nH]c3)ccc2n1` [Example 35, Benzyl-methyl-[7-(1H-pyrazol-4-yl)-benzo[1,2,4]triazin-3-yl]-amine]: < 100 nM. On to `[O-][n+]1nc(NCc2cccc(Cl)c2)nc2ccc(-c3cn[nH]c3)cc21` [Example 63, (3-Chloro-benzyl)-[1-oxy-7-(1H-pyrazol-4-yl)-benzo[1,2,4]triazin-3-yl]-amine], for which the IC50 on p70S6K (h) was < 1000 nM. Consider `C[C@H](c1cccc(Cl)c1)N(C)c1cnc2cc(-c3cn[nH]c3)ccc2n1` [Example 56, [(R)-1-(3-Chloro-phenyl)-ethyl]-methyl-[6-(1H-pyrazol-4-yl)-quinoxalin-2-yl]-amine], for which, in assay [1], the IC50 is < 5000 nM.

Take `C[C@@H](Nc1cnc2cc(-c3cn[nH]c3)ccc2n1)c1cccc(Cl)c1` [Example 55, [(R)-1-(3-Chloro-phenyl)-ethyl]-[6-(1H-pyrazol-4-yl)-quinoxalin-2-yl]-amine hydrochloride]: the values for the IC50 (in assay [1]; at p70S6K (h)) were < 1000 nM and < 100 nM, respectively. `C[C@H](c1ccccc1)N(C)c1cnc2cc(-c3cn[nH]c3)ccc2n1` [Example 51, Methyl-((R)-1-phenyl-ethyl)-[6-(1H-pyrazol-4-yl)-quinoxalin-2-yl]-amine]: the IC50 was < 5000 nM in assay [1] and < 100 nM on p70S6K (h). For `FC(F)(F)c1ccc(CNc2cnc3cc(-c4cn[nH]c4)ccc3n2)cc1` [Example 40, [6-(1H-Pyrazol-4-yl)-quinoxalin-2-yl]-(4-trifluoromethyl-benzyl)-amine], the IC50 at p70S6K (h) is < 1000 nM. For `[O-][n+]1nc(NCc2ccc(Cl)cc2)nc2ccc(-c3cn[nH]c3)cc21` [Example 62, (4-Chloro-benzyl)-[1-oxy-7-(1H-pyrazol-4-yl)-benzo[1,2,4]triazin-3-yl]-amine], the IC50 at p70S6K (h) is < 1000 nM. Regarding `c1ccc(CNc2cnc3cc(-c4cn[nH]c4)ccc3n2)nc1` [Example 16, [6-(1H-Pyrazol-4-yl)-quinoxalin-2-yl]-pyridin-2-ylmethyl-amine hydrochloride], on p70S6K (h), the IC50 was < 5000 nM. Regarding `CN(Cc1ccccc1)c1cnc2cc(-c3cncnc3)ccc2n1` [Example 43, Benzyl-methyl-(6-pyrimidin-5-yl-quinoxalin-2-yl)-amine], the IC50 was < 20000 nM in assay [1] and < 100 nM at p70S6K (h). `c1cc(CNc2cnc3cc(-c4cn[nH]c4)ccc3n2)ccn1` [Example 14, [6-(1H-Pyrazol-4-yl)-quinoxalin-2-yl]-pyridin-4-ylmethyl-amine hydrochloride]: at p70S6K (h), the IC50 is < 5000 nM. The same measure, in the same setting: the value for `[O-][n+]1nc(NCc2ccccc2)nc2ccc(-c3cn[nH]c3)cc21` [Example 61, Benzyl-[1-oxy-7-(1H-pyrazol-4-yl)-benzo[1,2,4]triazin-3-yl]-amine] was < 1000 nM. Take `C[C@@H](c1cccc(F)c1)N(C)c1cnc2cc(-c3cn[nH]c3)ccc2n1` [Example 60, [(S)-1-(3-Fluoro-phenyl)-ethyl]-methyl-[6-(1H-pyrazol-4-yl)-quinoxalin-2-yl]-amine]: the IC50 in assay [1] is < 20000 nM; at p70S6K (h) it was < 1000 nM. For the molecule `Cc1ccc(CNc2cnc3cc(-c4cn[nH]c4)ccc3n2)cc1` [Example 44, (4-Methyl-benzyl)-[6-(1H-pyrazol-4-yl)-quinoxalin-2-yl]-amine], on p70S6K (h), the IC50 is < 100 nM. `[O-][n+]1cc(NCc2ccccc2)nc2ccc(-c3cn[nH]c3)cc21` [Example 65C, benzyl-[4-oxy-6-(1H-pyrazol-4-yl)-quinoxalin-2-yl]-amine]: at p70S6K (h), the IC50 was < 1000 nM.
